The text below walks through data of patent publication US11433053B2, “LSD1 inhibitor and preparation method and application thereof” (CSPC ZHONGQI PHARMACEUTICAL TECHNOLOGY (SHIJIAZHUANG) CO., …, priority 2017, dated 2022).

For orientation: IC50 means the concentration that inhibits the measured activity by half. For orientation: bioavailability means dose-corrected exposure relative to a reference, in per cent.

For one data set, the target named is human LSD1 (Homo sapiens (Human), UniProt O60341). The data set can be described thus: Evaluation of enzyme activity: LSD1 fluorescence coupling enzyme assay (HRP/Amplex Red). Type of data set: biochemical. As to conditions: human LSD1, histone H3(1-21)K4me2 peptide 10 μM, 30 min pre-incubation. In short, it runs like this: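 Human LSD1 preincubated 30 min with compound, then reacted with H3(1-21)K4me2 peptide (10 μM). FAD-dependent H2O2 detected via HRP/Amplex Red fluorescence (Ex/Em 535/590). Ten-dose, 3-fold dilutions in duplicate from 10 μM gave IC50s, binned into activity classes.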

Data set [1] is described as follows: Pharmacokinetic evaluation in C57BL/6 mice after intravenous and oral administration. The conditions noted are these: male, mouse, plasma; for Cmax / clearance / half-life / Vd: IV 1 mg/kg; for Cmax: oral 2 mg/kg, route of Cmax not stated, read-out: max concentration Cmax; for clearance: read-out: clearance CL; for half-life: read-out: half-life T1/2 (IV, h) (converted); for Vd: read-out: volumes of distribution Vdss; for bioavailability: PO 2 mg/kg vs IV 1 mg/kg, read-out: bioavailability F (%); for AUC(0-t): PO 2 mg/kg, read-out: the area under the plasma concentration-time curve AUC0-last PO. Type of data set: in vivo. The procedure:
Experimental purposes: To test the pharmacokinetics of compounds in C57BL/6 mice
C57BL/6 mice (male, 7-9 weeks old, Shanghai Slack)
Test the pharmacokinetics characteristics of rodents after intravenous and oral administration in accordance with standard protocols, and the candidate compound was formulated into a clear solution in the experiment. The mice were administered by intravenous injection and orally once. The intravenous and oral vehicle is a 10% aqueous solution of hydroxypropyl β-cyclodextrin or a physiological saline solution. Six male C57BL/6 mice were employed in this assay, three of them were administered intravenously at a dose of 1 mg/kg, plasma samples were collected at 0 h (before administration) and 0.0833, 0.25, 0.5, 1, 2, 4, 7, 24 h after administration. Another three mice were administered by oral gavage at a dose of 2 mg/kg, plasma samples were collected at 0 h (before administration) and 0.5, 1, 2, 3, 4, 6, 24 h after administration. Collect whole blood samples within 24 hours, centrifuge at 3000 g for 15 minutes, separate the supernatant to obtain a plasma sample, 4 times volume of the internal standard acetonitrile solution was added to precipitate the protein. Centrifuge the supernatant and add an equal volume of water and centrifuge to take the supernatant. LC-MS/MS was used to quantitatively analyze plasma concentrations and calculate pharmacokinetic parameters such as max concentration (Cmax), clearance (CL), half-life (T1/2), volumes of distribution (Vdss), the area under the plasma concentration-time curve (AUC0-last), bioavailability (F), etc.

The next data set addresses hERG potassium channel (Homo sapiens (Human), UniProt Q12809). The data set can be described thus: Assay on inhibiting hERG potassium channel (automatic patch clamp, CHO-hERG cells). Type of data set: cell-based. As to conditions: Qpatch, max test concentration 40 μM. The procedure:
Experimental purpose: Using automatic patch clamp method to detect the effect of the sample to be tested on hERG potassium channel.
4.1.1 CHO-hERG cells were cultured in 175 cm^2 flasks. When the cell density was increased to 60-80%, the culture solution was removed and the resultant was washed with 7 mL PBS (Phosphate Buffered Saline phosphate buffer), then 3 mL of digestive juice was added to digest.
4.1.2 After the digestion finished, 7 mL culture solution was added to neutralize. Then centrifuge, aspirate the supernatant, and then resuspend by adding 5 mL culture solution to ensure a cell density of 2-5×10^6/mL.
Single cell high impedance sealing and whole cell pattern formation were all done automatically by the Qpatch instrument. After the whole-cell recording mode was obtained, the cells were clamped at −80 mV. 50-Millisecond−50 mV preamplifier was applied prior to a 5 second+40 mV depolarization stimulus. Then the voltage was repolarized to −50 mV for 5 seconds and back to −80 mV. This voltage stimulation was applied every 15 seconds, and the extracellular fluid was recorded over 5 minutes after 2 minutes' record, and then the administration process was started. The compound concentration was started from the lowest test concentration, and each test concentration was given for 2.5 minutes. Test at least 3 cells (n≥3) for each concentration.
4.4.1 Dilute 20 mM mother liquor of the compound with extracellular fluid 5 μL of 20 mM mother liquor of the compound was added to 2495 μL extracellular fluid, and the mixture was 500-fold diluted to 40 μM. Then 0.2% DMSO in extracellular fluid was 3-fold diluted sequentially to obtain the final concentration to be tested.
4.4.2 The max test concentration was 40 μM, 6 concentrations were 40, 13.33, 4.44, 1.48, 0.49, and 0.16 μM respectively.
Experimental data was analyzed by XLFit software.

Data set [2] relates to human small cell lung cancer NCI-H1417 cells subcutaneous xenograft tumor. Briefly: In vivo pharmacodynamic study, NCI-H1417 subcutaneous xenograft tumor CB-17 SCID mouse model. Set-up: species or system CB-17 SCID mice. The conditions noted are these: PO, QD. The procedure:
The purpose of this experiment was to investigate the efficacy of some of the compounds of the present invention in the in vivo xenograft tumor of human small cell lung cancer NCI-H1417 cells in a CB-17 SCID mouse model.
Week age and weight: 6-8 weeks old, weight 18-23 g
Human small cell lung cancer NCI-H1417 cells were cultured in vitro in a single layer cultured in RPMI-1640 medium (Sigma-aldrich, R0883), supplemented with 10% fetal bovine serum and cultured at 37° C. 5% CO2. When the cell saturation is 80%-90%. The cells are harvested, counted, and inoculated.
0.2 mL of 10×10^6 (NCI-H1417 cells were subcutaneously inoculated into the right back of each mouse (PBS:Matrigel=1:1). After 21 days of tumor inoculation, group administration was started when the average volume reached 107 mm^3.
The experimental solvent was the 10% hydroxypropyl-β-cyclodextrin solution. The preparation method was as follows: 100 g of hydroxypropyl-β-cyclodextrin was weighed into a 1000 mL jar, 800 mL of ultrapure water was added, stirred overnight until completely dissolved, and then made up to 1000 mL. The test substance was dissolved in a solvent, and was prepared into a uniform solution of a certain concentration and stored at 4° C.
The experimental indicator is to investigate whether tumor growth is inhibited, delayed or cured. Tumor diameters were measured twice a week using vernier calipers. The tumor volume is calculated as: V=0.5a×b^2, and a and b represent the long and short diameters of the tumor, respectively.
The antitumor effect of the compound was evaluated by TG (%). TGI (%), reflecting the tumor growth inhibition rate. TGI (%) calculation: TGI (%)=[1−(the average tumor volume at the end of a treatment group−the average tumor volume at the beginning of the treatment group)/(the average tumor volume at the end of the treatment of the solvent control group−The average tumor volume at the start of treatment in the solvent control group) was ×100%. Solvent control: Vehicle (10% hydroxypropyl-β-cyclodextrin solution).

[3] abbreviates: 1.5 mg/kg, day 27 after administration.
Setting [4] is: 1.5 mg/kg, day 28 after administration.
Setting [5] is: 5 mg/kg, day 28 after administration.

Sequence of hERG potassium channel (Q12809 whole entry): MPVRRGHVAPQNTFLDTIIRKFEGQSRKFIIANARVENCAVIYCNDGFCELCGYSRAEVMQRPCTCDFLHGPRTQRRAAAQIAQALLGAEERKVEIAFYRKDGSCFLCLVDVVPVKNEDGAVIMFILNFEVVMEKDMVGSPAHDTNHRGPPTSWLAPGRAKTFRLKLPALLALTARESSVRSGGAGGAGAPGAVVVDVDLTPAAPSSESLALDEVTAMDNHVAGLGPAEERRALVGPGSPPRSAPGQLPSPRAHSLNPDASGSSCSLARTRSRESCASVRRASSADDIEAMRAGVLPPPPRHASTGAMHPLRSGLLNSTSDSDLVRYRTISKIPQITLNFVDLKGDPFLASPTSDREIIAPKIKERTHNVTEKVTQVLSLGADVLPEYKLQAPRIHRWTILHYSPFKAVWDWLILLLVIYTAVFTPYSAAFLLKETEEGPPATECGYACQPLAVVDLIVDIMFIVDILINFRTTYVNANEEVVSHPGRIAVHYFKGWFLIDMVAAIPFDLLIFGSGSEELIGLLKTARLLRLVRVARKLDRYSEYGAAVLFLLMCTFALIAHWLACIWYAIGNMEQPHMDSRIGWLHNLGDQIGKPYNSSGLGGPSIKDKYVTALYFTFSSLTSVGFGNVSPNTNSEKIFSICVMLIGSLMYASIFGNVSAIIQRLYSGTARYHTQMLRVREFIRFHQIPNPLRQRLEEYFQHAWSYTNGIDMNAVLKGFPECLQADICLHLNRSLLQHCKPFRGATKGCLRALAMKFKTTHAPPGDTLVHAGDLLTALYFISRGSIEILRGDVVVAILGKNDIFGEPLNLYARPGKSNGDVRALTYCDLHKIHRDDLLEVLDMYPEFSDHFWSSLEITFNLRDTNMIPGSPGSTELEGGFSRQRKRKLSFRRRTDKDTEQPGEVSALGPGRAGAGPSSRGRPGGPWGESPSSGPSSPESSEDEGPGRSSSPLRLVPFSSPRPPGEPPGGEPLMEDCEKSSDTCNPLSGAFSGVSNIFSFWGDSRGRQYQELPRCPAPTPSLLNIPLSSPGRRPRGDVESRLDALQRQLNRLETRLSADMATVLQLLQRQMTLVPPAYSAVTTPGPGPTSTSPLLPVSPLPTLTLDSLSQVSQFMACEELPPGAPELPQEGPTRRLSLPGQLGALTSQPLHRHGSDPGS

On human LSD1, `N[C@H]1CC[C@H](c2nc(C3(CN[C@@H]4C[C@H]4c4ccccc4)CC3)no2)CC1` [Example 144] came in with an IC50 of no more than 0.05 µM. For the same compound, in data set [1], the Cmax was 25.3 ng/mL, the clearance is 92 mL/min/kg, the half-life is 4.5 h and the Vd is 28.5 L/kg. Further, in data set [1], the bioavailability turned out to be 21.5% and the AUC(0-t) is 0.17 µM·h. In addition, the IC50 on hERG potassium channel is greater than 40 µM. Also, in data set [2] (setting [3]), the “TGI (%)” value is recorded as 83.5% and the “Tumor volume (mm^3) (Day 27)” value was 180 ± 21 mm^3.
`N[C@H]1CC[C@@H](c2nc(C3(CN[C@@H]4C[C@H]4c4ccccc4)CC3)no2)CC1` [Example 145]: the IC50 against human LSD1 was no more than 0.05 µM. Further, in data set [1], the Cmax stood at 11.9 ng/mL, the clearance is 108 mL/min/kg, the half-life was 11.7 h and the Vd turned out to be 81.8 L/kg. For the same compound, in data set [1], the bioavailability came out at 9.1% and the AUC(0-t) is 0.0654 µM·h. The IC50 against hERG potassium channel is greater than 40 µM. In data set [2] (setting [3]), the “TGI (%)” value turned out to be 66.6% and the “Tumor volume (mm^3) (Day 27)” value was 250 ± 40 mm^3.
Take `N[C@H]1CC[C@H](c2cc(C3(CN[C@@H]4C[C@H]4c4ccccc4)CC3)no2)CC1` [Example 241]: at human LSD1, the IC50 is no more than 0.05 µM. Besides, in data set [1], the Cmax stood at 49.5 ng/mL, the clearance turned out to be 104 mL/min/kg, the half-life was 2.4 h and the Vd was determined as 20.9 L/kg. Also, in data set [1], the bioavailability was found to be 36.7% and the AUC(0-t) stood at 0.271 µM·h. Also, the IC50 against hERG potassium channel is greater than 40 µM. In data set [2] (setting [4]), the “TGI (%)” value stood at 66% and the “Tumor volume (mm^3) (Day 28)” value is reported as 251 ± 35 mm^3. In data set [2] (setting [5]), the “TGI (%)” value is 110% and the “Tumor volume (mm^3) (Day 28)” value was determined as 61 ± 10 mm^3.
